Publication PMC9610855, “Valorisation of the Inhibitory Potential of Fresh and Dried Fruit Extracts of Prunus spinosa L. towards Carbohydrate Hydrolysing Enzymes, Protein Glycation, Multiple Oxidants and Oxidative Stress-Induced Changes in Human Plasma Constituents” (Pharmaceuticals, 2022)

Tests used:
α-glucosidase = α-glucosidase inhibition assay (p-NPG hydrolysis, spectrophotometric); type: biochemical; settings: mean ± SD (n = 3)
Protocol: The inhibition of α-glucosidase was evaluated according to the spectrophotometric method reported by Ma et al. with slight modifications. The enzyme activity measurement was based on the p-nitrophenyl-α-D-glucopyranoside (p-NPG) hydrolysis. In brief, 150 µL of a phosphate buffer (0.1 M, pH 6.9) solution of an extract or standard was mixed with the enzyme (0.43 U/mL, 50 µL) and pre-incubated for 15 min at 37 °C. Next, a 0.7 mM p-NPG solution in the buffer (50 µL) was added, and after 15 min of incubation, the reaction was stopped by adding Na2CO3 (0.2 M, 50 µL). Finally, the absorbance was read at 405 nm in a microplate reader. […] The inhibitory potential of the analytes towards α-glucosidase was expressed as a half inhibitory concentration (IC50), calculated from concentration-inhibition curves.

NO^• scavenging = settings: mean ± SD of three replicates
Protocol: (§1) The scavenging efficiency of P. spinosa fruit extracts/fractions towards various ROS (O2^•−, HO^•, H2O2, HOCl, and NO^•) was tested using appropriate fluorimetric and spectrophotometric methods as described previously. Ascorbic acid and Trolox® served as positive controls. The results were expressed as half scavenging concentration (SC50) values, estimated using concentration-scavenging curves.

HOCl scavenging = settings: mean ± SD of three replicates
Protocol: as §1

O2^•− scavenging = settings: mean ± SD of three replicates
Protocol: as §1

H2O2 scavenging = settings: mean ± SD of three replicates
Protocol: as §1

HO^• scavenging = settings: mean ± SD of three replicates
Protocol: as §1

human neutrophils = tested on: human neutrophils; set-up: method as in PMID 35630778; settings: 50 μM; cited from earlier work
[1] = tested on: AGEs formation (protein glycation, fructose-BSA); experiment: inhibition of AGEs formation, fructose-bovine serum albumin (BSA) test system; settings: mean ± SD (n = 3)
Protocol: The impact of the extracts/fractions on protein glycation was evaluated in the fructose-bovine serum albumin (BSA) test system with aminoguanidine as a positive control according to the fluorimetric method of Starowicz and Zieliński, modified by Rutkowska et al.. The fluorescence was measured at 37 °C in a microplate reader at 355 nm and 420 nm for excitation and emission, respectively. The results were reported as half inhibitory concentration (IC50) values, estimated using concentration-inhibition curves.

α-amylase = molecular target: T1, α-amylase (Sus scrofa, UniProt P00690); experiment: α-amylase inhibition assay (EnzChek Ultra Amylase Assay Kit, fluorometric); type: biochemical; settings: mean ± SD (n = 3)
T1 construct: pancreatin from porcine pancreas; purchased Sigma-Aldrich; host or cells: porcine pancreas extract (pancreatin)
T1 sequence (P00690 16-511): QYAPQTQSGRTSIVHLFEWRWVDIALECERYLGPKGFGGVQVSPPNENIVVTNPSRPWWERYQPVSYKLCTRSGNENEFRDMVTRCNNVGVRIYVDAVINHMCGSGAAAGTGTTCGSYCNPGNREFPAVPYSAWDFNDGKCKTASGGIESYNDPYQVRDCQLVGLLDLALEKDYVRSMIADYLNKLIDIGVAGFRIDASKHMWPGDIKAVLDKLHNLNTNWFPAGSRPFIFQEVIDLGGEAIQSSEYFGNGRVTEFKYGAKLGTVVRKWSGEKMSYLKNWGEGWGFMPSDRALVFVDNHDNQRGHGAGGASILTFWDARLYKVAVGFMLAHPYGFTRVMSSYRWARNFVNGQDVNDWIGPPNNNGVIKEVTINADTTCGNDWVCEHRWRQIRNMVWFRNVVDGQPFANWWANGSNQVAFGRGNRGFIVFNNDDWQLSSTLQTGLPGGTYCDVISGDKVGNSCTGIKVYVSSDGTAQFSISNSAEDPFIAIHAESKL
Protocol: The inhibitory activity of the analytes towards α-amylase was determined fluorometrically according to Truba et al. using an EnzChek™ Ultra Amylase Assay Kit. The test was based on measuring products formed after the enzymatically catalysed hydrolysis of the corn starch substrate DQTM (labeled with the fluorescent dye BODIPY® FL). The fluorescence of the hydrolysate was read at 37 °C in a microplate reader at 485 nm and 535 nm for excitation and emission, respectively. […] The inhibitory potential of the analytes towards α-amylase was expressed as a half inhibitory concentration (IC50), calculated from concentration-inhibition curves.

[2] = tested on: human plasma lipids (TBARS); experiment: lipid peroxidation (TBARS) in human plasma exposed to ONOO^−; settings: 5 μg/mL, compared with the other standard polyphenols
Protocol: Therefore, to check the potential preventive effects of P. spinosa fruit extracts against oxidative and nitrative injury of biomolecules, an experimental model of human blood plasma exposed to oxidative stress induced by ONOO^− (100–150 μM; achievable locally in vivo, e.g., in inflamed blood vessels) was applied. The process was monitored by measuring the oxidative stress biomarkers, including the products of protein nitration (3-nitrotyrosine, 3-NT), lipid peroxidation (thiobarbituric acid reactive substances, TBARS), as well as the total antioxidant capacity of plasma (NEAC). The extracts and fractions from fresh sloes were selected for the study due to their high ability to inhibit glycolytic enzymes, potent anti-glycation activity, and significant ROS/RNS-scavenging properties. […] The influence on the levels of oxidative stress biomarkers in plasma was evaluated using the appropriate immunoenzymatic and spectrophotometric methods. […] The results were calculated using the standard curve of nitro-fibrinogen (3-NT-Fg) and expressed as 3-NT-Fg equivalents (nmol/mg of plasma proteins). The TBARS levels of plasma lipids were determined spectrophotometrically and calculated in nmol/mL of plasma. The impact on the NEAC value was measured using the FRAP assay, with the results calculated from the standard curve of ferrous sulphate and expressed in mM of Fe^2+ equivalents.

α-Glucosidase IC50 (α-glucosidase)	α-Amylase IC50 (α-amylase)	SMILES	Scavenging activity (SC50) NO^• (NO^• scavenging)	Scavenging activity (SC50) HOCl (HOCl scavenging)	Scavenging activity (SC50) O2^•− (O2^•− scavenging)	Scavenging activity (SC50) H2O2 (H2O2 scavenging)	Scavenging activity (SC50) HO^• (HO^• scavenging)	downregulation (reduction) of the ROS level in human neutrophils (human neutrophils)	AGEs Formation IC50 [1]	IC50 (α-amylase)	activity of model polyphenol in the TBARS test [2]
** (inactive up to 1000 µg/mL)		O=Cc1ccc(CO)o1 [5-Hydroxymethylfurfural (HMF), 5-hydroxymethylfurfural]	** (inactive up to a concentration of 500 µg/mL)	** (inactive up to a concentration of 500 µg/mL)	** (inactive up to a concentration of 500 µg/mL)	*** (inactive up to 1500 µg/mL)	*** (inactive up to 1500 µg/mL)	15%			
		N=C(N)NN [Aminoguanidine, aminoguanidine]							78.89 ± 4.95 ^C µg/mL		
		O=C1O[C@H]([C@@H](O)CO)C(O)=C1O [Ascorbic acid, ascorbic acid]	0.59 ± 0.04 ^A µg/mL	6.32 ± 0.07 ^A µg/mL	5.28 ± 0.25 ^A µg/mL	0.014 ± 0.001 ^A,B mg/mL	0.14 ± 0.005 ^B,C mg/mL				
		O=C(/C=C/c1ccc(O)c(O)c1)O[C@@H]1C[C@](O)(C(=O)O)C[C@@H](O)[C@H]1O [Chlorogenic acid, 5-O-caffeoylquinic acid]							7.07 ± 0.74 ^A µg/mL	229 µM	
635.13 ± 34.43 ^H µg/mL	31.28 ± 1.66 ^B µg/mL	OC[C@H]1O[C@@H](Oc2cc3c(O)cc(O)cc3[o+]c2-c2ccc(O)c(O)c2)[C@H](O)[C@@H](O)[C@@H]1O [Cyanidin 3-O-glucoside, cyanidin 3-O-β-D-glucopyranoside]	1.40 ± 0.09 ^B µg/mL	5.62 ± 0.11 ^A µg/mL	10.11 ± 0.33 ^A µg/mL	0.012 ± 0.001 ^A,B mg/mL	0.17 ± 0.002 ^C mg/mL		10.90 ± 0.85 ^A µg/mL		especially active
209.64 ± 5.64 ^G µg/mL		O=c1c(O[C@@H]2O[C@H](CO)[C@@H](O)[C@H](O)[C@H]2O)c(-c2ccc(O)c(O)c2)oc2cc(O)cc(O)c12 [Quercetin 3-O-glucoside (isoquercitrin), quercetin 3-O-β-D-glucopyranoside]							3.09 ± 0.17 ^A µg/mL		
		O=c1c(O)c(-c2ccc(O)c(O)c2)oc2cc(O)cc(O)c12 [Quercetin, quercetin]	0.48 ± 0.03 ^A µg/mL	2.08 ± 0.14 ^A µg/mL	7.89 ± 0.24 ^A µg/mL	0.008 ± 0.001 ^A mg/mL	0.05 ± 0.002 ^A mg/mL	96%			
		Cc1c(C)c2c(c(C)c1O)CCC(C)(C(=O)O)O2 (stereo not shown) [Trolox]	0.59 ± 0.02 ^A µg/mL	21.49 ± 1.21 ^C µg/mL	135.33 ± 5.59 ^F µg/mL	0.020 ± 0.001 ^B mg/mL	0.13 ± 0.003 ^B,C mg/mL				
